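Where inhibition never reached the appropriate level, the endpoint shown equals the highest concentration tested. Otherwise, values were interpolated linearly from a five-concentration, 48-hour dose response in 96-well plates. The concentration for 50% growth inhibition is given as GI50.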 Active and inactive are the calls of the source. Cut-off read from the data, not from the text of the source: active = GI50 up to about 1.1 µM and inactive = higher.

Experimental findings from ChEMBL document CHEMBL1201862, “PubChem BioAssay data set” (2004) are described below.

Holding throughout (experiment): DTP human tumour cell line panel, 48 h
The subject of test [1] is A498.
The subject of test [2] is CAKI-1.
For test [3], the system named is COLO 205.
Test [4] relates to DU-145.
Test [5] has as its system IGROV-1.
Test [6] deals with K562.
For test [7], the system named is LOX IMVI.
The test system of test [8] is M14.
Test [9] deals with MCF7.
The subject of test [10] is MDA-N.
In test [11] the test system is NCI/ADR-RES.
For test [12], the system named is RXF 393.
In test [13] the test system is SK-MEL-28.
Test [14] has as its system SNB-19.
Test [15] has as its system SNB-75.
Test [16] has as its system SR.
Test [17] concerns U-251.
In test [18] the test system is NCI-H522.
Test [19] has as its system OVCAR-4.

Usually GI50 stands for the concentration giving 50% growth inhibition. With `CCOC(=O)NN(C(=O)OCC)C(=C(C1=CCCCC1)N1CCOCC1)N(NC(=O)OCC)C(=O)OCC`, the GI50 in test [1], in test [2], in [3], in test [4], in test [5] and in test [6] was > 100 µM (inactive) in each case. Further, the GI50 in [7], in test [8], in [9], in test [10], in test [11] and in test [12] was > 100 µM (inactive) throughout. For the same compound, the GI50 in [13], in [14], in test [15], in [16] and in [17] was > 100 µM (inactive) each time.
As to `COc1cc(OC)c(OC)cc1/C=C1\C=Cc2ccccc21`, the GI50 in test [1] was > 10 µM (inactive); in test [3], 7.96 µM (inactive); in test [4] it was 28.8 µM (inactive); in [5], 26.9 µM (inactive); in test [6], 5.5 µM (inactive); in test [7] it was 13 µM (inactive). Further, the GI50 in test [9] was 12.1 µM (inactive); in test [10], 9.18 µM (inactive); in test [18] it was 12.1 µM (inactive); in test [11], 17.4 µM (inactive); in [12] it was 11.4 µM (inactive); in test [13], 15.7 µM (inactive). In addition, the GI50 was > 10 µM (inactive) in test [14], 2.04 µM (inactive) in test [15], 5.04 µM (inactive) in test [16] and 9.12 µM (inactive) in [17].
Regarding `NC1=Nc2ccccc2Sc2nc3ccccc3n21`, the GI50 in test [3] was 7.8 µM (inactive); in test [4], 39.6 µM (inactive); in test [5] it was 34.4 µM (inactive); in test [6], 9.38 µM (inactive); in test [7] it was 18.9 µM (inactive); in test [8] it was 5.46 µM (inactive). For the same compound, the GI50 is 5.53 µM (inactive) in test [9]; 5.13 µM (inactive) in [10]; 13.9 µM (inactive) in [18]; 27 µM (inactive) in test [11]; 7.85 µM (inactive) in [19]; 19.4 µM (inactive) in test [12]. Moreover, the GI50 in [14] is 50.1 µM (inactive); in test [15], 15.6 µM (inactive); in test [16], 4.49 µM (inactive); in test [17] it was 5.9 µM (inactive).
On to `S=C(Nc1ccc(Br)cn1)NC12CC3CC(CC(C3)C1)C2`, for which the GI50 was 33 µM (inactive) in [1]; 35.9 µM (inactive) in [2]; 62.2 µM (inactive) in test [3]; 41.2 µM (inactive) in [4]; 8.59 µM (inactive) in test [5]; > 100 µM (inactive) in [6]. Also, the GI50 was 46 µM (inactive) in test [8]; 26.3 µM (inactive) in test [9]; 15.8 µM (inactive) in test [10]; 11.2 µM (inactive) in [18]; 17.4 µM (inactive) in [11]; 17.1 µM (inactive) in test [19]. For the same compound, the GI50 in [12] is 15.2 µM (inactive); in [13], 39 µM (inactive); in test [14], 11 µM (inactive); in test [15], 13.9 µM (inactive); in test [16], 36.1 µM (inactive); in test [17] it was 11.3 µM (inactive).
On to `NC(Cc1ccccc1)c1nccs1` (stereo unspecified), for which the GI50 in test [1], in test [2], in [3], in test [4], in test [5] and in [6] was > 100 µM (inactive) each time. Besides, the GI50 in test [7], in test [8], in test [9], in test [10], in test [18] and in test [11] was > 100 µM (inactive) in each case. The GI50 in test [19], in test [13], in test [14], in test [15], in test [16] and in test [17] was > 100 µM (inactive) in each case.
Consider `CCCCCCCCCCCCCCCCCCNc1ccn(C2OC(COP(=O)(O)OCC3OC(n4cc(C)c(=O)[nH]c4=O)CC3N=[N+]=[N-])C(O)C2O)c(=O)n1` (stereo unspecified), for which the GI50 in test [2] is 22.4 µM (inactive); in test [3], 14.5 µM (inactive); in [4], 95.5 µM (inactive); in test [5], 19.1 µM (inactive); in test [6], 18.7 µM (inactive); in [7] it was 16.4 µM (inactive). The GI50 is 20.2 µM (inactive) in test [8]; 37 µM (inactive) in [9]; 43.7 µM (inactive) in test [10]; 13.3 µM (inactive) in [18]; 21 µM (inactive) in [11]; 25.7 µM (inactive) in test [19]. The GI50 was 18.6 µM (inactive) in [13]; 19.2 µM (inactive) in test [14]; 25.8 µM (inactive) in test [15]; 18.4 µM (inactive) in test [16]; 16.7 µM (inactive) in test [17].
Take `CC(=O)N1N=C(c2ccc3ccccc3c2O)CC1c1ccc(Cl)cc1Cl` (stereo unspecified): the GI50 was 27.9 µM (inactive) in test [1]; 22.6 µM (inactive) in test [2]; 28.3 µM (inactive) in test [3]; > 100 µM (inactive) in test [4]; 22.4 µM (inactive) in test [5]; 7.69 µM (inactive) in [6]. The GI50 in test [8] was 27.2 µM (inactive); in test [9] it was 13.2 µM (inactive); in [10], 24.4 µM (inactive); in test [18] it was 25.7 µM (inactive); in [11], 57.7 µM (inactive); in test [19], 33.1 µM (inactive). In addition, the GI50 in test [12] is 30.3 µM (inactive); in test [13] it was 93.1 µM (inactive); in [15], > 100 µM (inactive); in test [16] it was 5.21 µM (inactive); in test [17], 18.3 µM (inactive).
For the compound `Oc1ccc(Cl)cc1C1=NC(NCNC2=NC(c3ccccc3)CC(c3cc(Cl)ccc3O)=N2)=NC(c2ccccc2)C1` (stereo unspecified), the GI50 is > 100 µM (inactive) in test [1]; 94.2 µM (inactive) in [2]; > 100 µM (inactive) in test [3]; 44.2 µM (inactive) in test [4]; 61.2 µM (inactive) in [5]; 39 µM (inactive) in test [6]. Moreover, the GI50 in [7] is > 100 µM (inactive); in test [8], > 100 µM (inactive); in test [9], 20.9 µM (inactive); in test [10], 79.1 µM (inactive); in test [11], 82.4 µM (inactive); in test [19], 64.1 µM (inactive). Further, the GI50 is 37.7 µM (inactive) in test [12]; > 100 µM (inactive) in [13]; > 100 µM (inactive) in test [14]; > 100 µM (inactive) in [15]; 24.9 µM (inactive) in [16]; > 100 µM (inactive) in test [17].
Turning to `O=C(OCc1ccccc1)N1CCNCCNCC1`, the GI50 in test [1], in [2], in [3], in test [4], in [5] and in [6] was > 100 µM (inactive) in each case. Moreover, the GI50 in test [7], in test [8], in test [9], in [10], in test [18] and in test [11] was > 100 µM (inactive) in each case. Further, the GI50 in test [19], in test [12], in [13], in test [14], in test [16] and in test [17] was > 100 µM (inactive) each time.
In the case of `O=c1[nH]nc(Cn2c3ccc(Br)cc3c3nc4ccccc4nc32)n1C1CCCCC1`, the GI50 was 32.3 µM (inactive) in test [1]; > 100 µM (inactive) in test [2]; 3.9 µM (inactive) in test [3]; 32 µM (inactive) in [4]; > 100 µM (inactive) in test [5]; 20.7 µM (inactive) in [6]. The GI50 was < 0.01 µM (active) in [7]; 35.1 µM (inactive) in test [8]; 43.7 µM (inactive) in test [9]; 75.3 µM (inactive) in test [10]; > 100 µM (inactive) in test [11]; 18.6 µM (inactive) in test [19]. Besides, the GI50 in test [12] is 23.8 µM (inactive); in test [13], 19.3 µM (inactive); in test [14], > 100 µM (inactive); in [15] it was > 100 µM (inactive); in test [16] it was 2.08 µM (inactive); in test [17], 30.5 µM (inactive).
Consider `Cc1ccc(S(=O)(=O)n2cncc2CO)cc1`, for which the GI50 in test [2], in test [3], in [4], in test [5], in [6] and in test [7] was > 100 µM (inactive) in each case. The GI50 in test [8], in test [9], in test [10], in [18], in test [11] and in [19] was > 100 µM (inactive) in each case. The GI50 in test [12], in test [13], in test [14], in test [15], in [16] and in [17] was > 100 µM (inactive) in each case.
